According to US12691108B2, “Methods for treating vascular malformations” (Deciphera Pharmaceuticals, LLC, priority 2019, dated 2026):

Experiments:
WT TIE2 and TIE2 mutants = assay: Mutant TIE2-transfected HUVEC Western blot assay: TIE2 phosphorylation; type: cell-based, human; conditions: 100 nM, 4 hours, HUVECs with WT TIE2 and TIE2 mutants, presence or absence of ANGPT1 stimulation
Experimental: (§1) HUVECs used for in vitro work were kindly provided by Dr. Lauri Eklund (Oulu, Finland). Briefly, cells were grown in endothelial cell growth media (Tebu-Bio, Boechout, Belgium) containing 10% fetal calf serum (Sigma-Aldrich, Diegem, Belgium) at 37 degrees Celsius, 5% CO2, and 95% humidity. Cells were allowed to expand until reaching 90-95% confluence at which point they were subcultured or harvested for assay use.
(§2) HUVEC cells (2.5×10^5 cells/well) stably expressing WT or TIE2 mutants R849W, L914F, R1099*, Y897C/R915C, Y897F/F915L, or T1105N/T1106P were added to a 6-well plate coated with attachment factor solution (Tebu-Bio, Boechout, Belgium) in 2 mL of endothelial cell growth media (Tebu-Bio, Boechout, Belgium) containing 10% fetal calf serum (Sigma-Aldrich, Diegem, Belgium). Cells were subsequently incubated overnight at 37 degrees Celsius, 5% CO2, and 95% humidity. The next day test compound or DMSO was added to the wells (0.068% final DMSO concentration). The plates were then incubated for 4 hours at 37 degrees Celsius, 5% CO2, and 95% humidity. Next, cells were stimulated with 1 μg/mL ANGPT1 for 15 minutes. Cells were lysed and pTIE2, TIE2, b-actin, pAKT (S473), pAKT (T308), AKT, pSTAT1, and STAT1 were detected by Western blot.

[1] = test system: TIE2 mutant expressing HUVECs; assay: Mutant TIE2-transfected fibronectin assay (extracellular matrix); type: cell-based, human; conditions: 100 nM, 48 hours, TIE2 mutant HUVECs versus WT TIE2
Experimental: as §1
HUVEC cells (3×10^5 cells/well) stably expressing WT or TIE2 mutants R849W, L914F, R1099*, Y897C/R915C, Y897F/F915L, or T1105N/T1106P were added to a 6-well plate coated with attachment factor solution (Tebu-Bio, Boechout, Belgium) in endothelial cell growth media (Tebu-Bio, Boechout, Belgium) containing 10% fetal calf serum (Sigma-Aldrich, Diegem, Belgium). Cells were then incubated for 24 hours at 37 degrees Celsius, 5% CO2, and 95% humidity. Next, test compound or DMSO was added to the wells (0.068% final DMSO concentration). The plates were then further incubated for 48 hours at 37 degrees Celsius, 5% CO2, and 95% humidity. Cells were switched into 2% FBS for overnight. Intracellular fibronectin levels were lower in transfectants, thus cellular lysates were collected and used as controls. […]

[2] = test system: HUVEC cells expressing mutant TIE2-L914F (VM lesions in matrigel plugs); assay: Venous malformation mouse model, previously established VM lesions, diet from post-implant day 7; type: in vivo, athymic nude male mice
Experimental: (§3) For the in vivo model, fresh HUVEC transfectants were made using lentiviral infection. […]. Subsequently, 25,000 HUVECs/well (LGC Standards sarl, France) were grown on a 24-well plate for 24 hrs, infected with 500 μl of the lentivirus-TIE2-L914F mix, then cultured for another 48 hrs, collected, then frozen.
To evaluate the effect of the compound on vascular malformation (VM) lesion development in vivo, HUVEC cells (2.5×10^6) expressing mutant TIE2-L914F were cultured, detached, then resuspended in 200 μL matrigel (Corning). The mixture was injected subcutaneously into the dorsal back of athymic nude male mice, aged 5-7 weeks (Charles River). […] At post-implant day 7 or 16, mice were euthanized and the skin surrounding each matrigel plug was excised, then pinned flat onto a styrofoam board and fixed in 10% neutral buffered formalin solution (Sigma-Aldrich, Diegem, Belgium) overnight. Matrigel plugs were removed from the murine skin, dehydrated in a series of graded alcohol, and embedded in paraffin. Paraffin-embedded plugs were then cut into 5 μm sections for histological analysis. After de-paraffinization in xylene and rehydration in a series of degraded alcohol, sections were subjected to heat-induced antigen-retrieval in 0.1 M citrate buffer, pH 6.0, with or without 0.05% Tween-20. For immunohistochemical staining, sections were blocked with 3% H2O2 (Sigma-Aldrich, Diegem, Belgium), incubated with a biotinylated antibody against the human endothelial cell marker Ulex europaeus Agglutinin 1 (UEA1) (Vector labs, Brussels, Belgium), followed by a horseradish peroxidase-conjugated streptavidin secondary antibody (GE Healthcare, Diegem, Belgium), then in a DAB solution (Vector labs, Brussels, Belgium). Sections were counterstained with hematoxylin and mounted with VectaMount permanent mounting medium (Vector labs, Brussels, Belgium). […] The average vessel area was quantitated by making snapshots at a 20× objective of at least 5 areas of each matrigel plug and measuring the area of a least 6 UEA+ vessels each using ImageJ software. […]

STAT1 = assay: Mutant TIE2-transfected HUVEC Western blot assay: STAT1 phosphorylation downstream of TIE2; type: cell-based, human; conditions: 100 nM, 4 hours, HUVECs with WT TIE2 and TIE2 mutants, presence or absence of ANGPT1 stimulation
Experimental: as §1, §2

[3] = test system: HUVEC cells expressing mutant TIE2-L914F (VM lesions in matrigel plugs); assay: Venous malformation mouse model, diet from day of injection (Day 0); type: in vivo, athymic nude male mice
Experimental: as §3
To evaluate the effect of the compound on vascular malformation (VM) lesion development in vivo, HUVEC cells (2.5×10^6) expressing mutant TIE2-L914F were cultured, detached, then resuspended in 200 μL matrigel (Corning). The mixture was injected subcutaneously into the dorsal back of athymic nude male mice, aged 5-7 weeks (Charles River). […] At post-implant day 7 or 16, mice were euthanized and the skin surrounding each matrigel plug was excised, then pinned flat onto a styrofoam board and fixed in 10% neutral buffered formalin solution (Sigma-Aldrich, Diegem, Belgium) overnight. Matrigel plugs were removed from the murine skin, dehydrated in a series of graded alcohol, and embedded in paraffin. Paraffin-embedded plugs were then cut into 5 μm sections for histological analysis. After de-paraffinization in xylene and rehydration in a series of degraded alcohol, sections were subjected to heat-induced antigen-retrieval in 0.1 M citrate buffer, pH 6.0, with or without 0.05% Tween-20. For immunohistochemical staining, sections were blocked with 3% H2O2 (Sigma-Aldrich, Diegem, Belgium), incubated with a biotinylated antibody against the human endothelial cell marker Ulex europaeus Agglutinin 1 (UEA1) (Vector labs, Brussels, Belgium), followed by a horseradish peroxidase-conjugated streptavidin secondary antibody (GE Healthcare, Diegem, Belgium), then in a DAB solution (Vector labs, Brussels, Belgium). Sections were counterstained with hematoxylin and mounted with VectaMount permanent mounting medium (Vector labs, Brussels, Belgium). For immunofluorescent staining (IF), sections were incubated with primary antibodies that recognize UEA1, the smooth muscle layer marker SMA (clone 1A4, Sigma-Aldrich, Diegem, Belgium), phosphorylated-TIE2(Y772) (Bioke, Leiden, Netherlands), or total TIE2 (Santa Cruz, Heidelberg, Germany). Secondary antibodies used were conjugated to Alexa488-, Alexa649-, or CY5-fluorophores. Slides were mounted with VectaShield Hardset mounting medium with DAPI (Vector labs, Brussels, Belgium). Images were acquired via a Panoramic 250 Flash III digital slide scanner (3D Histech, Hungary) and visualized with Caseviewer version 2.2 software (3D Histech, Hungary). The average vessel area was quantitated by making snapshots at a 20× objective of at least 5 areas of each matrigel plug and measuring the area of a least 6 UEA+ vessels each using ImageJ software.
To evaluate the overall vascular morphology within the explants, wholemount IF of vessels within matrigel plugs was done. After excising skins with matrigel plugs attached and flat-fixing them overnight in 10% neutral buffered formalin, an approximately 100-200 μm piece of the plug was sliced off and washed in 1×PBS. The pieces were blocked overnight in 1% BSA (v/v) (Gibco) and 0.3% Triton-X100 (Sigma-Aldrich, Diegem, Belgium) in 1×PBS, then incubated in UEA1 for at least 72 hours, followed by in CY5-streptavidin secondary antibody (Vector labs, Brussels, Belgium). Pieces were then post-fixed in 10% NBF for 10 min, then mounted with Fluormount G (Thermo Fischer Scientific, Merelbeke, Belgium). Z-stack images were acquired with a Zeiss cell observer spinning disk confocal microscope (Zeiss, Germany); 3-D projections of Z-stacks were generated by the AriVis4D software. […] Non-vascularized UEA+ cells were also present but the expression is reduced. Also conducted were comparisons of treated and untreated VM lesions at day 16 with wild type and L914F TIE2 mutants in which treatment began at day 0 (FIG. 18A-D) or day 7 (FIG. 19A-C).

TIE2 mutant HUVECs [4] = assay: Mutant TIE2-transfected HUVEC cell morphology assay; type: cell-based, human; conditions: 100 nM, imaged at 24 and 48 hours, TIE2 mutant HUVECs compared with WT TIE2 HUVECs
Experimental: as §1
HUVEC cells (5×10^5 cells/plate) stably expressing WT or TIE2 mutants R849W, L914F, R1099*, Y897C/R915C, Y897F/F915L, or T1105N/T1106P were added to a 10 cm plate coated with attachment factor solution (Tebu-Bio, Boechout, Belgium) in 6 mL of endothelial cell growth media (Tebu-Bio, Boechout, Belgium) containing 10% fetal calf serum (Sigma-Aldrich, Diegem, Belgium). Cells were then incubated for 2 days at 37 degrees Celsius, 5% CO2, and 95% humidity. Next, test compound or DMSO was added to the wells (0.068% final DMSO concentration). The plates were then further incubated for 48 hours at 37 degrees Celsius, 5% CO2, and 95% humidity. The cells were imaged by microscopy at 24 hours and 48 hours after addition of compound.

TIE2 mutant HUVECs [5] = assay: Mutant TIE2-transfected gene expression assay (quantitative PCR); type: cell-based, human; conditions: 100 nM, 48 hours, normalized to GAPDH
Experimental: as §1
HUVEC cells (5×10^5 cells/plate) stably expressing WT or TIE2 mutants R849W, L914F, R1099*, Y897C/R915C, Y897F/F915L, or T1105N/T1106P were added to a 10 cm plate coated with attachment factor solution (Tebu-Bio, Boechout, Belgium) in endothelial cell growth media (Tebu-Bio, Boechout, Belgium) containing 10% fetal calf serum (Sigma-Aldrich, Diegem, Belgium). Cells were then incubated for 2 days at 37 degrees Celsius, 5% CO2, and 95% humidity. Next, test compound or DMSO was added to the wells (0.068% final DMSO concentration). The plates were then further incubated for 48 hours at 37 degrees Celsius, 5% CO2, and 95% humidity. RNA was extracted by collecting the cells into TriPure isolation reagent (Sigma-Aldrich, Diegem, Belgium). Subsequently, cDNA from extracted RNA was synthesized using RevertAid H Minus first strand cDNA synthesis kit (Thermo Fischer Scientific, Merelbeke, Belgium). Quantitative PCR was carried out using LightCycler480 SYBRGreen master mix and a LightCycler 480 II instrument (Roche, Switzerland). cDNA for ANGPT2, PDGFB, ADAMTS1, ADAMTS9, PLAT, and PLAU were quantified and normalized to the expression from the housekeeping gene GAPDH.

AKT = assay: Mutant TIE2-transfected HUVEC Western blot assay: AKT phosphorylation downstream of TIE2; type: cell-based, human; conditions: 100 nM, 4 hours, HUVECs with WT TIE2 and TIE2 mutants, presence or absence of ANGPT1 stimulation
Experimental: as §1, §2

[6] = diet equivalent to 10 mg/kg from Day 0, post-implant day 7
[7] = diet equivalent to 10 mg/kg from Day 0, post-implant day 7, versus control diet
[8] = diet equivalent to 10 mg/kg from Day 0, post-implant day 16

Question: How did the “inhibition of TIE2 phosphorylation” value (WT TIE2 and TIE2 mutants) turn out when `CNC(=O)c1cc(Oc2ccc(NC(=O)Nc3cc(C(C)(C)C)nn3-c3ccc4ncccc4c3)c(F)c2)ccn1` [compound of Formula I, rebastinib] was run?
Answer: complete inhibition

Question: And the “fibronectin levels in the extracellular matrix” value [1]?
Answer: restored fibronectin levels

Question: And the “severity of established VMs” value ([2]; diet from post-implant day 7)?
Answer: ameliorated the severity of VMs

Question: What about the “average vascular area of vessels” value ([2]; diet from post-implant day 7, explants day 16) of the same compound?
Answer: moderately reduced

Question: And the “smooth muscle cell layer coverage” value ([2]; diet from post-implant day 7, explants day 16, versus control diet)?
Answer: improved smooth muscle cell layer coverage

Question: And the “inhibition of STAT1 phosphorylation” value (STAT1)?
Answer: complete inhibition

Question: What about the “gross appearance of blood-filled vascular channels (macroscopic view of lesions)” value ([3]; diet equivalent to 10 mg/kg from Day 0, compared to untreated mutants) of the same compound?
Answer: more controlled and less severe

Question: And the “overall vascular morphology (wholemount IF)” value [3, 6]?
Answer: more normal, tubular vessels were seen

Question: What about the “smooth muscle cell/pericyte coverage (SMA staining)” value [3, 6] of the same compound?
Answer: displayed a few SMA positive cells

Question: And the “average area of vessels within the plugs” value [3, 7]?
Answer: drastically less

Question: What about the “expression of pTIE2 in ECs” value [3, 7] of the same compound?
Answer: weaker

Question: What about the “overall vascular morphology (wholemount IF)” value [3, 8] of the same compound?
Answer: largely normalized

Question: And the “smooth muscle cell/pericyte coverage (SMA+ cells)” value [3, 8]?
Answer: surrounded more consistently by SMA+ cells

Question: What about the “vessel size in lesions” value ([3]; diet equivalent to 10 mg/kg from Day 0, post-implant day 16, versus control diet and untreated) of the same compound?
Answer: much smaller vessels

Question: And the “pTIE2 in ECs” value ([3]; diet equivalent to 10 mg/kg from Day 0, post-implant day 16, versus untreated)?
Answer: drastically reduced

Question: What about the VM development ([3]; mice fed compound-infused food) of the same compound?
Answer: reduced VM development

Question: What about the cellular morphology (TIE2 mutant HUVECs [4]) of the same compound?
Answer: restored cellular morphology

Question: And the “expression of ADAMTS1 RNA” value (TIE2 mutant HUVECs [5])?
Answer: decreased expression

Question: And the “expression of ADAMTS9 RNA” value (TIE2 mutant HUVECs [5])?
Answer: decreased expression

Question: And the “expression of ANGPT2 RNA” value (TIE2 mutant HUVECs [5])?
Answer: increased expression

Question: And the “expression of PDGFB RNA” value (TIE2 mutant HUVECs [5])?
Answer: increased expression

Question: What about the “expression of PLAT RNA” value (TIE2 mutant HUVECs [5]) of the same compound?
Answer: decreased expression

Question: What about the “expression of PLAU RNA” value (TIE2 mutant HUVECs [5]) of the same compound?
Answer: decreased expression

Question: And the “inhibition of AKT Ser473 phosphorylation” value (AKT)?
Answer: complete inhibition

Question: And the “inhibition of AKT Thr308 phosphorylation” value (AKT)?
Answer: complete inhibition
